Test results as given in patent publication US9802937B2, “Substituted pyrazolo{4,3-D}pyrimidines as kinase inhibitors” (ORIGENIS GMBH, priority 2011, dated 2017).

How the values were obtained:
[1] = target: T1, SYK kinase (Homo sapiens, UniProt P43405); assay: SYK Assay (OMNIA KINASE ASSAY, SOX peptide fluorescence); type: biochemical; conditions: apparent Ki calculated from the IC50 using the Cheng-Prusoff equation; 1 mM ATP, 30° C.; read-out: SYK Activities: Ki
T1 construct: purchased Invitrogen, Carlsbad
Summary of the method: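 Apparent Ki values are derived by Cheng-Prusoff from IC50s of sigmoidal fits of reaction rate against compound concentration. Rates come from chelation-enhanced SOX fluorescence (λex 360/λem 485 nm, read every 30 s over 30 min) as the kinase phosphorylates 10 µM Omnia Tyr 7 peptide at 30 °C, with 1 mM ATP and 0.2 mM DTT.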

[2] = target: LRRK2 (Homo sapiens, UniProt Q5S007); assay: LRRK2-LRRK2 G2019S-Assay (LanthaScreen Eu Kinase Binding Assay); conditions: 5 nM LRRK2 or their mutants, 10 nM tracer 236, RT 1 h; read-out: LRRK2 Activities: IC50
Procedure: In the assay LanthaScreen™ Eu Kinase Binding Assay by Invitrogen Corporation (Carlsbad) the effect of invention of a compound on the phosphorylation is determined by measurement of fluorescence intensity emission ratio based on the binding and displacement of a proprietary, Alexa Fluor® 647-labeled, ATP-competitive kinase inhibitor scaffold (kinase tracer) to the kinase of interest. Binding of the tracer to the kinase is detected using a europium-labeled anti-tag antibody, which binds to the kinase of interest. Simultaneous binding of both the tracer and antibody to the kinase results in a high degree of FRET (fluorescence resonance energy transfer) from the europium (Eu) donor fluorophore to the Alexa Fluor® 647 acceptor fluorophore on the kinase tracer. Binding of an inhibitor to the kinase competes for binding with the tracer, resulting in a loss of FRET. The fluorescence intensity ratio is directly proportional to the amount of peptide phosphorylation.
To the wells of an 384 well small volume plate (Greiner, Frickenhausen) are added (i) the compound under test in 5% DMSO/distilled water (5 μl), (ii) 5 μl of the kinase antibody mixture resulting in a final concentration 5 nM LRRK2 or their mutants, 2 nM EU-Anti-GST antibody in 1× kinase buffer A. The reaction was started with addition of (iii) 5 μl resulting in a final concentration of 10 nM tracer 236. The assay plate was incubated at RT for 1 h and fluorescence intensitiy readings were collected using a TECAN M1000 at two wavelengthes of λex 340/λem 615 nm and λex 340/λm 665 nm with a delay time of 100 μs and an integration time of 200 μs after 60 minutes. The emission ratio was calculated by division of the acceptor/tracer emission ([…]) by the antibody/donor emission ([…]). The inhibitor concentration was plotted versus the emission ratio to determine the IC50 using XLFit 5.0 (IDBS, Guildford) to fit to a sigmoidal dose response curve with a variable slope.

Chain of LRRK2 (Q5S007 970-2527 limits assumed): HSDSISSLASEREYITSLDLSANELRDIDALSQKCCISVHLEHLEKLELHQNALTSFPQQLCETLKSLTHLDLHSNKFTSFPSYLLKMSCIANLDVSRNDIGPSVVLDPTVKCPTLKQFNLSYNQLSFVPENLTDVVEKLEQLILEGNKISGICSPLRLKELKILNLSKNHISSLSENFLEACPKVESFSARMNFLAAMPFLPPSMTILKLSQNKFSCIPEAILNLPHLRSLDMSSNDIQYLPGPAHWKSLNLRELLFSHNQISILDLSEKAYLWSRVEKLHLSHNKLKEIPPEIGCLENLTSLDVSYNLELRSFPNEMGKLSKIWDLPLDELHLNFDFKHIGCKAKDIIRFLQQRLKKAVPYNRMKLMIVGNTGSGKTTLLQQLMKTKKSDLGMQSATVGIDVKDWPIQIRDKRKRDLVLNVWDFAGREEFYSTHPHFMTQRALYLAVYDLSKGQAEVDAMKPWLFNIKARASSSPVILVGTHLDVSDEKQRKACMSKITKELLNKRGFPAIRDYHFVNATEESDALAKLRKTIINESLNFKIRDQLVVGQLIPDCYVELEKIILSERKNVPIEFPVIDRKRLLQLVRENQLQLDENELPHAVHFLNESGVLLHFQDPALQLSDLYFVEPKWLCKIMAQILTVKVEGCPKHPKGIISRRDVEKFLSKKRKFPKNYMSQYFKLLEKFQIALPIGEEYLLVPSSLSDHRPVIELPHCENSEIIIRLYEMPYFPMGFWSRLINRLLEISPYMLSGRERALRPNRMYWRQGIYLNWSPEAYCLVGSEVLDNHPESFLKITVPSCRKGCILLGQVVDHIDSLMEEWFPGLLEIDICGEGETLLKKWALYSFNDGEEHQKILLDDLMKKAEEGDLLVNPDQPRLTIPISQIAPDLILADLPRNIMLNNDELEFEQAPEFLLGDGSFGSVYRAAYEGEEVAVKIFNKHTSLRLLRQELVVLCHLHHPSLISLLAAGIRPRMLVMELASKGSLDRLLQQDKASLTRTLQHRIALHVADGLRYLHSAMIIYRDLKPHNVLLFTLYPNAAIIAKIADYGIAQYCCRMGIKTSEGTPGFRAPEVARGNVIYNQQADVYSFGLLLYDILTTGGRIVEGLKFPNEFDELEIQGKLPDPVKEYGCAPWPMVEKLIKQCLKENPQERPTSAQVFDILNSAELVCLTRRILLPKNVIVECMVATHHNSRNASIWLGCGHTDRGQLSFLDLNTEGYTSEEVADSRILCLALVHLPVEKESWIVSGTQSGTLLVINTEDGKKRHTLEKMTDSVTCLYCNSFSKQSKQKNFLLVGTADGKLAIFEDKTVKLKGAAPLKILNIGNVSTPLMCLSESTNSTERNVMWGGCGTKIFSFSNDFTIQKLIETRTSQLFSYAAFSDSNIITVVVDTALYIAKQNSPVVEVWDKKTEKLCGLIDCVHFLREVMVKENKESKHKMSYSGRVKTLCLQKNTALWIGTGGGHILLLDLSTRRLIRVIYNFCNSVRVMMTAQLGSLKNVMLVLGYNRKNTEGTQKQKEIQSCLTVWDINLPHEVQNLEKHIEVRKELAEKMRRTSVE

Ki [1] | IC50 [2] | SMILES
< 10 nM | 10 to 100 nM | c1cc(-c2nc(Nc3ccc4c(c3)NCCO4)c3[nH]ncc3n2)cs1 [Example #84, N-(5-(thiophen-3-yl)-1H-pyrazolo[4,3-d]pyrimidin-7-yl)-3,4-dihydro-2H-benzo[b][1,4]oxazin-6-amine]
10 to 100 nM | 100 to 1000 nM | COc1ccc(-c2nc(Nc3cc(C4CC4)[nH]n3)c3[nH]ncc3n2)cc1 [Example #86, N-(5-cyclopropyl-1H-pyrazol-3-yl)-5-(4-methoxyphenyl)-1H-pyrazolo[4,3-d]pyrimidin-7-amine]
10 to 100 nM | 10 to 100 nM | COc1cccc(-c2nc(Nc3ccc4c(c3)NCCO4)c3[nH]ncc3n2)c1 [Example #89, N-(5-(3-methoxyphenyl)-1H-pyrazolo[4,3-d]pyrimidin-7-yl)-3,4-dihydro-2H-benzo[b][1,4]oxazin-6-amine]
10 to 100 nM | 100 to 1000 nM | CN1CCC(c2nc(Nc3ccc4c(c3)NCCO4)c3[nH]ncc3n2)CC1 [Example #93, N-(5-(1-methylpiperidin-4-yl)-1H-pyrazolo[4,3-d]pyrimidin-7-yl)-3,4-dihydro-2H-benzo[b][1,4]oxazin-6-amine]
10 to 100 nM | 100 to 1000 nM | COc1ccc(Nc2nc(-c3cccc(-c4cccnc4)c3)nc3cn[nH]c23)cc1OC [Example #101, N-(3,4-dimethoxyphenyl)-5-(3-(pyridin-3-yl)phenyl)-1H-pyrazolo[4,3-d]pyrimidin-7-amine]
10 to 100 nM | 100 to 1000 nM | COc1ccc(Nc2nc(-c3ccccc3OC)nc3cn[nH]c23)cc1OC [Example #109, N-(3,4-dimethoxyphenyl)-5-(2-methoxyphenyl)-1H-pyrazolo[4,3-d]pyrimidin-7-amine]
10 to 100 nM | 100 to 1000 nM | COc1ccccc1-c1nc(Nc2ccc3c(c2)NCCO3)c2[nH]ncc2n1 [Example #110, N-(5-(2-methoxyphenyl)-1H-pyrazolo[4,3-d]pyrimidin-7-yl)-3,4-dihydro-2H-benzo[b][1,4]oxazin-6-amine]
10 to 100 nM | 100 to 1000 nM | COc1ccccc1-c1nc(Nc2ccc3cn[nH]c3c2)c2[nH]ncc2n1 [Example #111, N-(1H-indazol-6-yl)-5-(2-methoxyphenyl)-1H-pyrazolo[4,3-d]pyrimidin-7-amine]
10 to 100 nM | < 10 nM | O=C(c1ccc(Nc2nc(-c3cccs3)nc3cn[nH]c23)cc1)N1CCCC1 [Example #135, pyrrolidin-1-yl(4-((5-(thiophen-2-yl)-1H-pyrazolo[4,3-d]pyrimidin-7-yl)amino)phenyl)methanone]
< 10 nM | 10 to 100 nM | O=S1(=O)CCN(c2ccc(Nc3nc(-c4cccs4)nc4cn[nH]c34)cc2)CC1 [Example #137, 4-(4-((5-(thiophen-2-yl)-1H-pyrazolo[4,3-d]pyrimidin-7-yl)amino)phenyl)thiomorpholine 1,1-dioxide]
10 to 100 nM | 100 to 1000 nM | O=C(c1ccc(Nc2nc(-c3ccsc3)nc3cn[nH]c23)cc1)N1CCCC1 [Example #142, pyrrolidin-1-yl(4-((5-(thiophen-3-yl)-1H-pyrazolo[4,3-d]pyrimidin-7-yl)amino)phenyl)methanone]
10 to 100 nM | 10 to 100 nM | c1cc(-c2nc(Nc3ccc(N4CCSCC4)cc3)c3[nH]ncc3n2)cs1 [Example #145, N-(4-thiomorpholinophenyl)-5-(thiophen-3-yl)-1H-pyrazolo[4,3-d]pyrimidin-7-amine]
10 to 100 nM | 100 to 1000 nM | O=C(O)c1cccc(-c2nc(Nc3ccc(N4CCOCC4)cc3)c3[nH]ncc3n2)c1 [Example #156, 3-(7-((4-morpholinophenyl)amino)-1H-pyrazolo[4,3-d]pyrimidin-5-yl)benzoic acid]
< 10 nM | 100 to 1000 nM | O=C1COc2ccc(Nc3nc(-c4cccs4)nc4cn[nH]c34)cc2N1 [Example #162, 6-((5-(thiophen-2-yl)-1H-pyrazolo[4,3-d]pyrimidin-7-yl)amino)-2H-benzo[b][1,4]oxazin-3(4H)-one]

More lines, now with the values behind:

SMILES | Ki [1] | IC50 [2]
Oc1cccc(Nc2nc(-c3ccsc3)nc3cn[nH]c23)c1 [Example #85, 3-((5-(thiophen-3-yl)-1H-pyrazolo[4,3-d]pyrimidin-7-yl)amino)phenol] | 10 to 100 nM | 100 to 1000 nM
COc1ccc(-c2nc(Nc3ccc4c(c3)NCCO4)c3[nH]ncc3n2)cc1 [Example #87, N-(5-(4-methoxyphenyl)-1H-pyrazolo[4,3-d]pyrimidin-7-yl)-3,4-dihydro-2H-benzo[b][1,4]oxazin-6-amine] | < 10 nM | 10 to 100 nM
COc1cccc(-c2nc(Nc3cc(C4CC4)[nH]n3)c3[nH]ncc3n2)c1 [Example #88, N-(5-cyclopropyl-1H-pyrazol-3-yl)-5-(3-methoxyphenyl)-1H-pyrazolo[4,3-d]pyrimidin-7-amine] | 100 to 1000 nM | 100 to 1000 nM
COc1ccc(Nc2nc(-c3nc4ccccc4s3)nc3cn[nH]c23)cc1OC [Example #96, 5-(benzo[d]thiazol-2-yl)-N-(3,4-dimethoxyphenyl)-1H-pyrazolo[4,3-d]pyrimidin-7-amine] | 10 to 100 nM | 100 to 1000 nM
COc1ccccc1-c1nc(Nc2ccc(N3CCN(C)CC3)cc2)c2[nH]ncc2n1 [Example #108, 5-(2-methoxyphenyl)-N-(4-(4-methylpiperazin-1-yl)phenyl)-1H-pyrazolo[4,3-d]pyrimidin-7-amine] | 10 to 100 nM | 100 to 1000 nM
CCN1CCN(c2ccc(Nc3nc(-c4ccccc4)nc4cn[nH]c34)cc2)CC1 [Example #119, N-(4-(4-ethylpiperazin-1-yl)phenyl)-5-phenyl-1H-pyrazolo[4,3-d]pyrimidin-7-amine] | < 10 nM | 100 to 1000 nM
c1ccn2cc(-c3nc(Nc4ccc5[nH]ncc5c4)c4[nH]ncc4n3)nc2c1 [Example #126, 5-(imidazo[1,2-a]pyridin-2-yl)-N-(1H-indazol-5-yl)-1H-pyrazolo[4,3-d]pyrimidin-7-amine] | 10 to 100 nM | 100 to 1000 nM
c1csc(-c2nc(Nc3ccc(N4CCSCC4)cc3)c3[nH]ncc3n2)c1 [Example #136, N-(4-thiomorpholinophenyl)-5-(thiophen-2-yl)-1H-pyrazolo[4,3-d]pyrimidin-7-amine] | 10 to 100 nM | 10 to 100 nM
CN1CCN(c2ccc(Nc3nc(-c4cnc[nH]4)nc4cn[nH]c34)cc2)CC1 [Example #140, 5-(1H-imidazol-5-yl)-N-(4-(4-methylpiperazin-1-yl)phenyl)-1H-pyrazolo[4,3-d]pyrimidin-7-amine] | 10 to 100 nM | 100 to 1000 nM
O=C1COc2ccc(Nc3nc(-c4ccsc4)nc4cn[nH]c34)cc2N1 [Example #146, 6-((5-(thiophen-3-yl)-1H-pyrazolo[4,3-d]pyrimidin-7-yl)amino)-2H-benzo[b][1,4]oxazin-3(4H)-one] | 10 to 100 nM | 100 to 1000 nM
O=C(c1ccc(Nc2nc(-c3ccsc3)nc3cn[nH]c23)cc1)N1CCOCC1 [Example #157, morpholino(4-((5-(thiophen-3-yl)-1H-pyrazolo[4,3-d]pyrimidin-7-yl)amino)phenyl)methanone] | 10 to 100 nM | 100 to 1000 nM
O=C1CSc2ccc(Nc3nc(-c4ccsc4)nc4cn[nH]c34)cc2N1 [Example #158, 6-((5-(thiophen-3-yl)-1H-pyrazolo[4,3-d]pyrimidin-7-yl)amino)-2H-benzo[b][1,4]thiazin-3(4H)-one] | 10 to 100 nM | 10 to 100 nM
COc1ccc(-c2nc(Nc3ccc4c(c3)NC(=O)CC4)c3[nH]ncc3n2)cc1 [Example #159, 7-((5-(4-methoxyphenyl)-1H-pyrazolo[4,3-d]pyrimidin-7-yl)amino)-3,4-dihydroquinolin-2(1H)-one] | 10 to 100 nM | 100 to 1000 nM
COc1ccc(-c2nc(Nc3ccc4c(c3)NC(=O)CCC4)c3[nH]ncc3n2)cc1 [Example #164, 8-((5-(4-methoxyphenyl)-1H-pyrazolo[4,3-d]pyrimidin-7-yl)amino)-4,5-dihydro-1H-benzo[b]azepin-2(3H)-one] | < 10 nM | 10 to 100 nM
CN1CCCc2ccc(Nc3nc(-c4cccs4)nc4cn[nH]c34)cc21 [Example #166, 1-methyl-N-(5-(thiophen-2-yl)-1H-pyrazolo[4,3-d]pyrimidin-7-yl)-1,2,3,4-tetrahydroquinolin-7-amine] | 10 to 100 nM | 10 to 100 nM
COc1ccc(-c2nc(Nc3ccc(N4CCS(=O)(=O)CC4)cc3)c3[nH]ncc3n2)cc1 [Example #169, 4-(4-((5-(4-methoxyphenyl)-1H-pyrazolo[4,3-d]pyrimidin-7-yl)amino)phenyl)thiomorpholine 1,1-dioxide] | < 10 nM | 100 to 1000 nM
